Earlier results as cited in patent EP0436316A1, “X-ray contrast media for prolonged opacification” (Sovak, Milos, priority 1989, dated 1991).

Test system: peritoneal surface
Settings: barium sulfate spilled into the abdomen after a perforation

## O=S(=O)([O-])[O-].[Ba+2] [barium sulfate]
  mortality rate of barium peritonitis: ~50%
